The results in this text go back to BindingDB's records for doi:10.1021/jm060561m (Purdue University, 2006).

This assay deals with T1, Dimer of Gag-Pol polyprotein [501-599,Q508K,L534I,L564I,C568A,C596A] (Human immunodeficiency virus 1, UniProt P03367, C568A/C596A/L534I/L564I/Q508K).
T1 construct: 501-599
The assay is described as follows: Protease Inhibition Assay. The conditions noted are these: pH 6.4; 25 °C. The method, then: The Ki values were determined by substrate cleavage assay using fluorogenic substrate, 2-(aminobenzoyl)-Thr-Ile-Nle-Phe(p-NO2)-Gln-Arg-NH2. A standard curve relating changes in fluorescent intensity to changes in concentration of product was used to convert fluorescent changes into molar velocities. The amount of cleavage was determined by HPLC.

A word on the Ki: it is a measure of affinity in units of concentration, obtained from inhibition or displacement.

On to `CC(C)CN(C[C@@H](O)[C@H](Cc1ccccc1)NC(=O)O[C@H]1C[C@H]2CCC[C@H]2C1)S(=O)(=O)c1ccc(CO)cc1` [(2R,3aR,6aS)-octahydropentalen-2-yl N-[(2S,3R)-3-hydroxy-4-{[4-(hydroxymethyl)benzene](2-methylpropyl)sulfonamido}-1-phenylbutan-2-yl]carbamate], for which the affinity corresponds to a Ki of 5.3 nM.

In the case of `CC(C)CN(C[C@@H](O)[C@H](Cc1ccccc1)NC(=O)O[C@@H]1C[C@@H]2CCO[C@@H]2C1)S(=O)(=O)c1ccc(N)cc1` [(3aS,5R,6aR)-hexahydro-2H-cyclopenta[b]furan-5-yl N-[(2S,3R)-4-[(4-aminobenzene)(2-methylpropyl)sulfonamido]-3-hydroxy-1-phenylbutan-2-yl]carbamate], the Ki turned out to be 0.14 nM.
